# Measurements reported in US20050130232A1, “Methods of screening for compounds that modulate hormone receptor activity” (Allergan, Inc., priority 2001, published 2005).
# Where no end group is shown, it is not given here. [ ]: non-standard residue; d: D form. hArg = N=C(N)NCCCC[C@H](N)C(=O)O
# Target: Flag-tagged PH-RXRα (Flag tag, pleckstrin homology domain of human insulin receptor substrate-1, human RXRα) (UniProt P35568)
# Test: not given
# Settings: not given
row,Compound,"protein kinase A activity in anti-Flag immunoprecipitates (substrate SEQ ID NO: 59), with against without AGN194204"
1,"catalytic subunit of murine protein kinase A (expressed from pFC-PKA, Stratagene)",Immunoprecipitates prepared with anti-Flag antibody showed a dramatic increase in the amount of protein kinase A activity

# Target: T1, RXR-associated protein kinase in Flag-RXR immunocomplexes (Homo sapiens, UniProt P19793)
# T1 construct: expressed in transfected cells; host or cells: HEK 293
# T1 sequence (P19793 1-462): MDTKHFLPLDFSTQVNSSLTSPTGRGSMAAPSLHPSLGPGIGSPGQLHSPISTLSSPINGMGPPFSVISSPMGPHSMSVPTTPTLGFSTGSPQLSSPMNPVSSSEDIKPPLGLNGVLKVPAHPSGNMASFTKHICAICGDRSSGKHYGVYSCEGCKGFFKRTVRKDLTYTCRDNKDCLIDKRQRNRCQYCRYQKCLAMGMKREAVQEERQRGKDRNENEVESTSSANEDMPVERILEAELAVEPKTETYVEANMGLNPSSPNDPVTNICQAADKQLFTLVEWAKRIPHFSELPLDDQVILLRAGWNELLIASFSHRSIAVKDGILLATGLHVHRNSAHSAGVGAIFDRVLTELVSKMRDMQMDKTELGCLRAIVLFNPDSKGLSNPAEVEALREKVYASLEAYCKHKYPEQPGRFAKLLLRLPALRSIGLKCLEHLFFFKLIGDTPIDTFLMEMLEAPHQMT
# Test: In vitro kinase reaction with [γ-32P]ATP on Flag-RXR immunocomplexes from transfected HEK 293 cells
# Type: cell-based
# Settings: transfected HEK 293 cells treated with ligand before anti-Flag immunoprecipitation
# From the text: Total cell lysates were immunoprecipitated with anti-Flag antibody (M2). Aliquots of the immunocomplexes were used for the in vitro kinase reaction with [γ-^32P]ATP and separated on SDS-PAGE. Phosphorylated proteins were detected by autoradiography (top panel). Additional aliquots of the immunocomplexes were subjected to immunoblotting with polyclonal anti-RXR antisera (D20; bottom panel). (B) Phosphoamino acid analysis. Flag-RXR and the 160-kDa protein were phosphorylated in vitro and separated on SDS-PAGE as described above, then transferred onto PVDF membrane, detected by autoradiography, and cut out for hydrolysis with acid (6 N HCl). The phosphorylated amino acids and standards (P-Ser, P-Thr, and P-Tyr) were separated by thin-layer chromatography. Positions of the standards P-Ser, P-Thr, and P-Tyr were visualized by ninhydrin staining and are indicated by arrows. (C) In vivo metabolic labeling of transfected HEK 293 cells. […] Cells were washed with phosphate-free medium and starved for 90 minutes before incubation with [^32P]orthophosphate for another 4 hours. […] Total cell lysates were immunoprecipitated with anti-Flag antibody (M2) and subjected to separation on SDS-PAGE. Phosphorylated proteins were detected by autoradiography.
# Total cell lysates were subjected to immunoprecipitation, and the in vitro kinase reaction performed as described above.
# Cell lysis, immunoprecipitation with anti-Flag (M2), in vitro kinase assay, and detection of the phosphorylated proteins in the RXRα immunoprecipitated complexes were performed as described above.
# Cell culture and transient transfection was performed as follows. HEK 293 cells were grown in Dulbecco's modified Eagle's medium (DMEM) supplemented with 10% fetal bovine serum (FBS), 100U of penicillin per ml and 10 μg of streptomycion per ml at 37° C. in 5% CO2. For expression of RXR protein, 100-mm dishes of cells were transfected at 50% confluence with 2 μg of plasmid DNA using Lipofectamine (Life Technologies) as specified by the manufacturer. At 32 hours post-transfection, cells were starved by incubating in DMEM medium with 2.5% charcoal-treated fetal bovine serum or 0.1-0.5% calf bovine serum overnight, and then treated with indicated agents. Cells were harvested by aspirating medium, rinsing in phosphate buffered saline (PBS), and extracting into Lysis Buffer (30 mM Tris-HCL, pH 7.4, 0.5% Nonidet P-40, 10% glycerol, 150 mM NaCl, 1 mM EDTA, 40 mM NaF, 1 mM sodium orthovanadate, and 0.5 mM phenylmethylsufonyl fluoride, and 1× protease inhibitors, (Roche Diagnostics) or 1×SDS Sample Buffer.
# Immunoprecipitation was performed essentially as follows. Cells were solubilized in cold Lysis Buffer and subsequently clarified by centrifugation at 20,000 g for 10 minutes at 4° C. Immunoprecipitations were performed at 4° C. by incubating clarified cell extracts with the indicated antibodies (2 μg/ml) and protein A/G-agarose beads (1:30 dilution of a 50% suspension) on a rotating wheel for 4 hours to overnight. Agarose beads were pelleted by low speed centrifugation and washed extensively with ice-cold Lysis Buffer.
# Protein kinase assays were performed as follows. Immunoprecipitated complexes were resuspended in 15 μl of Kinase Assay Buffer (30 mM Tris-HCl, pH 7.4 and 10 mM MgCl2). Kinase reactions were initiated by addition of 2.5 μl of 50 μM [γ-^32P]ATP (10 μCi) to the immune-complexes, followed by incubation at 25° C. with occasional shaking for 20 minutes, and terminated by addition of 6 μl 4×SDS Sample Buffer. After heating at 100° C. for 5 minutes, the reaction mixtures were resolved by 4-12% SDS-PAGE. Incorporation of ^32P into RXR or other proteins was determined by autoradiography.
row,Compound,phosphorylation of RXR and 160 kDa protein in Flag-RXR immunocomplexes
1,CC1(C)CCC(C)(C)c2cc(C3(c4ccc(C(=O)O)cn4)CC3)ccc21 [AGN195029],contained a kinase phosphorylated RXR and a 160 kDa protein
2,CC1(C)CCC(C)(C)c2c1cc(C(=O)Nc1cc(F)c(C(=O)O)c(F)c1)c(O)c2Cl [AGN195183],not stimulated
3,CC[C@]1(c2ccc3c(c2)C(C)(C)CCC3(C)C)C[C@H]1/C=C/C(C)=C/C(=O)O [AGN195184],contained a kinase phosphorylated RXR and a 160 kDa protein
4,CCC[C@]1(c2ccc3c(c2)C(C)(C)CCC3(C)C)C[C@H]1/C=C/C(C)=C/C(=O)O [AGN195203],contained a kinase phosphorylated RXR and a 160 kDa protein
5,CCCCCCOc1c(\C(C)=C/C=C/C(C)=C/C(=O)O)cc(C(C)C)cc1C(C)C [AGN195393],neither RXR nor the 160 kDa protein was phosphorylated
6,C/C(=C\c1ccc(C(=O)O)cc1)c1ccc2c(c1)C(C)(C)CCC2(C)C [TTNPB],neither RXR nor the 160 kDa protein was phosphorylated

# System: protein kinase A
# Test: not given
# Settings: selected protein kinase A synthetic substrates; cited from earlier work
row,Compound,Km [µM]
1,"A R T K R S G S V (ARTKRSGSV) [SEQ ID NO.: 98, protein kinase A synthetic substrate]",10
2,"G R G L S L S R (GRGLSLSR) [SEQ ID NO.: 90, protein kinase A synthetic substrate]",240
3,"L H R A S L G (LHRASLG) [SEQ ID NO.: 101, protein kinase A synthetic substrate]",415
4,"L R K A S L G (LRKASLG) [SEQ ID NO.: 100, protein kinase A synthetic substrate]",260
5,"L R R A S L (LRRASL) [SEQ ID NO.: 96, protein kinase A synthetic substrate]",57
6,"L R R A S V A (LRRASVA) [SEQ ID NO.: 91, protein kinase A synthetic substrate]",> 10
7,"L X^aR A S L G (L[hArg]RASLG) [SEQ ID NO.: 102, protein kinase A synthetic substrate, X = homoarginine]",350
8,"LRRASLG [SEQ ID NO.: 94, L R R A S L G]",16
9,"R R A S F (RRASF) [SEQ ID NO.: 111, protein kinase A synthetic substrate]",13
10,"R R A S I (RRASI) [SEQ ID NO.: 112, protein kinase A synthetic substrate]",7
11,"R R A S L G (RRASLG) [SEQ ID NO.: 95, protein kinase A synthetic substrate]",26
12,"R R A S V (RRASV) [SEQ ID NO.: 93, protein kinase A synthetic substrate]",24
13,"R R A S V A (RRASVA) [SEQ ID NO.: 92, protein kinase A synthetic substrate]",20
14,"R T G R S G S V (RTGRSGSV) [SEQ ID NO.: 106, protein kinase A synthetic substrate]",140
15,"R T K R S G S V (RTKRSGSV) [SEQ ID NO.: 99, protein kinase A synthetic substrate]",21
16,"V L Q A R R G S S I P Q (VLQARRGSSIPQ) [SEQ ID NO.: 104, protein kinase A synthetic substrate]",11
17,"V L Q A R R G T S I P Q (VLQARRGTSIPQ) [SEQ ID NO.: 109, protein kinase A synthetic substrate]",139
18,"V L Q R R R G S S I P Q (VLQRRRGSSIPQ) [SEQ ID NO.: 97, protein kinase A synthetic substrate]",4
19,"V L Q R R R G T S I P Q (VLQRRRGTSIPQ) [SEQ ID NO.: 108, protein kinase A synthetic substrate]",39
20,"V L Q R R R P T S I P Q (VLQRRRPTSIPQ) [SEQ ID NO.: 110, protein kinase A synthetic substrate]",118

# System: RXR receptors
# Test: not given
# Settings: cited from earlier work
row,Compound,binding to RXR receptors
1,"CC1=C(/C=C/C(C)=C\C=C\C(C)=C\C(=O)O)C(C)(C)CCC1 [9-cis RA, 9-cis-retinoic acid]",RXR receptor ligand
2,"CC1=C(/C=C/C(C)=C/C=C/C(C)=C/C(=O)O)C(C)(C)CCC1 [ATRA, All trans-retinoic acid]",does not bind the RXR receptors
3,Cc1cc2c(cc1C1(c3ccc(C(=O)O)cn3)CC1)C(C)(C)CCC2(C)C [LG 100268],binding to all three RXRs
4,CC(C)=C(c1ccc(C(=O)O)cc1)c1ccc2c(c1)C(C)(C)CCC2(C)C [SR 11217],binding to all three RXRs
5,CC1(C)CCC(C)(C)c2cc(C3(c4ccc(C(=O)O)cc4)OCCO3)ccc21 [SR 11237],binding to all three RXRs
6,C/C(=C\c1ccc(C(=O)O)cc1)c1ccc2c(c1)C(C)(C)CCC2(C)C [TTNPB],not RXRs

# System: RAR receptors
# Test: not given
# Settings: cited from earlier work
row,Compound,binding to RAR receptors
1,"CC1=C(/C=C/C(C)=C\C=C\C(C)=C\C(=O)O)C(C)(C)CCC1 [9-cis RA, 9-cis-retinoic acid]",binds to the RAR receptors
2,"CC1=C(/C=C/C(C)=C/C=C/C(C)=C/C(=O)O)C(C)(C)CCC1 [ATRA, All trans-retinoic acid]",physiological hormone for the RAR receptors
3,Cc1cc2c(cc1C1(c3ccc(C(=O)O)cn3)CC1)C(C)(C)CCC2(C)C [LG 100268],not to any of the RAR isotypes
4,CC(C)=C(c1ccc(C(=O)O)cc1)c1ccc2c(c1)C(C)(C)CCC2(C)C [SR 11217],not to any of the RAR isotypes
5,CC1(C)CCC(C)(C)c2cc(C3(c4ccc(C(=O)O)cc4)OCCO3)ccc21 [SR 11237],not to any of the RAR isotypes
6,C/C(=C\c1ccc(C(=O)O)cc1)c1ccc2c(c1)C(C)(C)CCC2(C)C [TTNPB],binds RARs

# Same assay, conditions: in vitro binding assays; cited from earlier work
row,Compound,RAR isotype selectivity
1,CC1(C)CCSc2ccc(C#Cc3ccc(C(=O)O)cn3)cc21 [AGN 190299],RARβ/γ selective
2,CC1(C)CCC(C)(C)c2cc(NC(=O)c3ccc(C(=O)O)cc3)ccc21 [Am 80],RARα-selective
3,CC1(C)CCC(C)(C)c2cc(C(=O)Nc3ccc(C(=O)O)cc3)ccc21 [Am 580],RARα-selective
